Laboratory results: patent US9969695B2, “N-substituted imidazole carboxylic ester chiral compound containing an ether side chain, its preparation and application” (WEST CHINA HOSPITAL, SICHUAN UNIVERSITY, priority 2013, dated 2018)
Values joined by “and” are separate entries in the source; they are usually repeats but may differ in a detail not shown here. Equal entries are not always repeated. Structures can show the parent of a compound that is named as a salt. Where two headings read alike, the source gives them in different places.

Key:
Assay type in all cases: in vivo
Male SD rats [1] = test: Onset time, last time, palinesthesia time and adverse effects at 2ED50 via the rat tail vein; conditions: for Incidence of adverse effect: Anal sphincter dilatation / Incidence of adverse effect: Bucking / Incidence of adverse effect: Hindlimb stiffness / Incidence of adverse effect: Muscle tremor / Incidence of adverse effect: Tic of limbs / Incidence of adverse effect: Vomiting / Onset time: 10 rats per group; for Last time: disappearance to recovery of body-righting reflex; for Palinesthesia tune / Palinesthesia time: recovery to full recovery of body-righting reflex
Method: (§1) Male SD rats (250˜300 g) were used as an experimental animal, and 50% effective dose (ED50) was determined by the sequential method. Three compounds were dissolved in a solvent of DMSO, and etomidate was used as the commercially-available formulation (B BRAUN, Etomidate-Lipuro®, 20 mg/10 mL). Based on the initial dose of 1 mg/kg, other dosages were adjusted as the ratio of 0.8, and the ED50 values of the three compounds and etomidate were determined. Extinction time ≥30 s for the rat body-righting reflex was the positive marker while no disappearance of the righting reflex was considered invalid. Based on the experimental results, four cross-points were formed, and the ED50 values were calculated. […] Then, the respective 2ED50 values of the three compounds and etomidate were taken in an equivalent dose, which were administered via the rat tail vein. The preliminary effects were evaluated in the four rat groups, which were given the three compounds of Formulas (I), (IV), (V) and etomidate, respectively, with 10 rats in each group. […] The last time of the Formula (I) compound and etomidate was 5-6 min, but the last time of the Formulas (IV) and (V) compounds was 10-20 min. […] DMSO had no pharmacological effects, and no adverse effects were observed. The onset time, the last time, and the adverse effects (types, incidence rates) induced by the three compounds and etomidate are shown in the following table:
(§2) Male SD rats (250˜300 g) were used as an experimental animal, and 50% effective dose (ED50) was determined by the sequential method. Hydrochlorides of the three compounds were dissolved in the solvent of normal saline, and etomidate was used as the commercially-available formulation (B BRAUN, Etomidate-Lipuro®, 20 mg/10 mL). The initial dose was 1 mg/kg, and the ratio of dosage variation was 0.8, which was applied in the determination of ED50 values of Formula (I) hydrochloride, Formula (I) hydrobromide, Formula (I) trifluoroacetate, and etomidate. Extinction time (≥30 s) of the rat body-righting reflex was the positive marker while no disappearance of the reflex was considered invalid. Based on the experimental results, four cross-points were formed, and then ED50 values were calculated. […] Then, the respective 2ED50 values of the three compounds and etomidate were taken in an equivalent dose, which were administered via the rat tail vein. The preliminary effects were evaluated in the four rat groups, which were given the three compounds of Formulas (I) hydrochloride, Formula (I) hydrobromide, Formula (I) trifluoroacetate, and etomidate, respectively, with 10 rats in each group. […] Palinesthesia time was in arrange of 5-10 min. During the test period, no significant difference was found in the types and the incidence rates of adverse effects in each group. DMSO had no pharmacological effects, and no adverse effect was found. The onset time, the last time, and the types and the incidence rates of adverse effects induced by the three salt compounds and etomidate are shown in the following table: […]

[2] = tested on: self-synthesis of adrenocortical hormone; test: Increase degree of cortical hormone (cortisol, corticosterone) in blood serum after ACTH stimulation, ELISA; conditions: Beagle dogs; for Increase degree of corticosterone / Increase degree of cortisol: 2ED50, dexamethasone baseline, 1 h after ACTH
Method: Male Beagle dogs (10±2 kg) were selected as an experimental animal. After administration, the contents of corticosterone and cortisol in the blood serum of the Beagle dogs were determined by the ELISA kit and the enzyme-labelled instrument. The 20 Beagle dogs were divided into five groups, with four dogs in each group. After respective administration of dexamethasone (0.01 mg/kg), the level of adrenal cortex in the dog body was lowered to the baseline, and those levels of corticosterone and cortisol at this time were used as the base value (baseline). […] After 10 min, ACTH (adrenocortical hormone) was given to stimulate and cause an increased level of cortex in the dog body. One hour after administration of ACTH, both corticosterone and cortisol levels in the blood serum of the Beagle dogs were determined, and the ratio of the peak value to the base value of the cortex levels was calculated. This ratio indicated the increase degree of the cortical hormone. A greater degree indicated a less inhibitory effect of the medicine on the cortical hormone. After administration, compounds of Formulas (I), (IV) and (V), DMSO, and the increase degree of the cortical hormone followed by stimulation of ACTH are shown in the following table:
Male Beagle dogs (10±2 kg) were selected as an experimental animal. After administration, the contents of corticosterone and cortisol in the blood serum of the Beagle dogs were determined by the ELISA kit and the enzyme-labelled instrument. The 20 Beagle dogs were divided into five groups, with four dogs in each group. After respective administration of dexamethasone (0.01 mg/kg), the level of adrenal cortex in the dog body was lowered to the baseline, and the levels of corticosterone and cortisol at this time were used as the baseline. Then, the equivalent doses (2ED50) of the compounds of Formula (I) hydrochloride (3.62 mg/kg), hydrobromide (3.86 mg/kg), trifluoroacetate (4.66 mg/kg), the positive control medicine Etomidate-Lipuro® (0.9 mg/kg), and the equal-volume of solvent DMSO were respectively administrated into the dogs of the five groups. After 10 min, ACTH was given to stimulate and cause the cortex levels increase in the dog body. One hour after administration of ACTH, both the cortical hormone levels were determined, and the ratio of the peak value to the baseline of cortex levels was calculated. This ratio indicated the increase degree of the cortical hormone. A greater degree of increase indicated a less inhibitory effect of the medicine on the cortical hormone. After administrations, the three salts of the Formula (I) compound, DMSO, the increase degree of the cortical hormone followed by stimulation of ACTH are shown in the following table: […]

Male SD rats [3] = test: ED50 by the sequential method, extinction of rat body-righting reflex; conditions: etomidate as Etomidate-Lipuro, extinction of body-righting reflex ≥30 s; for ED50: Rattus norvegicus, read-out: 50% effective dose (ED50)
Method: as §1, §2

[4] = Example 10, ratio of peak value to base value
[5] = Example 9, 2ED50 via tail vein, listed as Formula (I) hydrobromide
[6] = Example 11, ratio of peak value to baseline
[7] = Example 9, 2ED50 via tail vein, listed as Formula (I) hydrochloride
[8] = Example 9, 2ED50 via tail vein, listed as Formula (I) trifluoroacetate

SMILES	sedative-hypnotic and general anesthetic effects (conclusion in words) (Male SD rats [1]; Example 8)	types and incidence rates of the adverse effects (in words) (Male SD rats [1]; Example 8, 2ED50 via tail vein)	Incidence of adverse effect: Anal sphincter dilatation (Male SD rats [1]; Example 8, 2ED50 via tail vein)	Incidence of adverse effect: Bucking (Male SD rats [1]; Example 8, 2ED50 via tail vein)	Incidence of adverse effect: Hindlimb stiffness (Male SD rats [1]; Example 8, 2ED50 via tail vein)	Incidence of adverse effect: Muscle tremor (Male SD rats [1]; Example 8, 2ED50 via tail vein)	Onset time (Male SD rats [1]; Example 8, 2ED50 via tail vein)	Last time (Male SD rats [1]; Example 8, 2ED50 via tail vein) [min]	Palinesthesia tune (Male SD rats [1]; Example 8, 2ED50 via tail vein) [min]	Increase degree of corticosterone [2, 4]	Increase degree of cortisol [2, 4]	ED50 (Male SD rats [3]; Example 8, compounds in DMSO) [mg/kg]	sedative-hypnotic and general anesthetic effects (conclusion in words) (Male SD rats [1]; Example 9)	Incidence of adverse effect: Muscle tremor (Male SD rats [1]; Example 9, 2ED50 via tail vein)	Onset time (Male SD rats [1]; Example 9, 2ED50 via tail vein)	Last time (Male SD rats [1]; Example 9, 2ED50 via tail vein) [min]	Palinesthesia time (Male SD rats [1]; Example 9, 2ED50 via tail vein) [min]	cortical hormone increase after stimulation by ACTH (conclusion in words) ([2]; Example 11)	Increase degree of corticosterone [2, 6]	Increase degree of cortisol [2, 6]	other results
COCCOC(=O)c1cncn1C(C)c1ccccc1 (racemic) [Compound V]	lower potency, elongated onset time, extended last time, and increased types and incidence rates of adverse effects	obviously increased	(2/10), 20%;	Bucking (4/10), 40%	20%;	60%;	a little slower action and 1.0 ± 0.6 min	10.8 ± 3.5	15.1 ± 2.6	3.18 ± 1.15	5.17 ± 2.28	10.4	–	–	–	–	–	–	–	–	Incidence of adverse effect: Tic of limbs (Male SD rats [1]; Example 8, 2ED50 via tail vein): Tic of limbs (5/10), 50%;; Incidence of adverse effect: Vomiting (Male SD rats [1]; Example 8, 2ED50 via tail vein): Vomiting (5/10), 50%;
COCCOC(=O)c1cncn1[C@@H](C)c1ccccc1 [Compound IV]	lower potency, elongated onset time, extended last time, and increased types and incidence rates of adverse effects	obviously increased	(5/10), 50%;	Bucking (6/10), 60%	50%;	100%;	2.2 ± 0.8 min	20.3 ± 4.6	21.4 ± 2.3	1.19 ± 0.87	3.32 ± 2.36	7.46	–	–	–	–	–	–	–	–	Incidence of adverse effect: Tic of limbs (Male SD rats [1]; Example 8, 2ED50 via tail vein): Tic of limbs (7/10), 70%;; Incidence of adverse effect: Vomiting (Male SD rats [1]; Example 8, 2ED50 via tail vein): Vomiting (7/10), 70%;; Onset time (Male SD rats [1]; Example 8, 2ED50 via tail vein, listed as Formula (IV)): a little slower action
COCCOC(=O)c1cncn1[C@H](C)c1ccccc1 [Compound I]	good sedative-hypnotic and general anesthetic effects	–	–	–	–	70%	Immediate	5.8 ± 0.9	4.8 ± 1.3	11.46 ± 4.30	19.88 ± 19.8	2.1	–	–	–	–	–	–	–	–	Onset time (Male SD rats [1]; Example 8, 2ED50 via tail vein, listed as Formula (I) compound): immediate action; inhibition on cortical hormone (conclusion in words) ([2]; Example 10, after stimulation by ACTH): obviously reduced when compared with that of the control medicine etomidate
COCCOC(=O)c1cncn1[C@H](C)c1ccccc1 [Hydrobromide of Formula (I) compound]	–	–	–	–	–	–	–	–	–	–	–	–	good sedative-hypnotic and general anesthetic effects	50%	Immediate	4.6 ± 1.1	5.8 ± 1.2	lower than that in the blank group of the dogs, but obviously higher than that in the positive medicine etomidate group of the dogs	12.36 ± 6.65	29.14 ± 11.86	Onset time (Male SD rats [1]; [5]): immediate action; Last time (Male SD rats [1]; [5]): 5 to 6 min; 50% effective dose (ED50) (Male SD rats [3]; Example 9, salts in normal saline, listed as Formula (I) hydrobromide): 3.09 mg/kg
COCCOC(=O)c1cncn1[C@H](C)c1ccccc1 [Hydrochloride of Formula (I) compound]	–	–	–	–	–	–	–	–	–	–	–	–	good sedative-hypnotic and general anesthetic effects	60%	Immediate	5.8 ± 0.7	5.6 ± 1.8	lower than that in the blank group of the dogs, but obviously higher than that in the positive medicine etomidate group of the dogs	18.14 ± 5.66	25.36 ± 14.77	Onset time (Male SD rats [1]; [7]): immediate action; Last time (Male SD rats [1]; [7]): 5 to 7 min; ED50 (Male SD rats [3]; Example 9, salts in normal saline): 2.58 mg/kg
COCCOC(=O)c1cncn1[C@H](C)c1ccccc1 [Trifluoroacetate of Formula (I) compound]	–	–	–	–	–	–	–	–	–	–	–	–	good sedative-hypnotic and general anesthetic effects	(5/10), 50%	Immediate	3.6 ± 1.3	8.2 ± 3.3	lower than that in the blank group of the dogs, but obviously higher than that in the positive medicine etomidate group of the dogs	13.64 ± 4.22	26.14 ± 13.89	Onset time (Male SD rats [1]; [8]): immediate action; Last time (Male SD rats [1]; [8]): 4 to 7 min; 50% effective dose (ED50) (Male SD rats [3]; Example 9, salts in normal saline, listed as Formula (I) trifluoroacetate): 3.61 mg/kg
